Tested on: T1, polyphenol oxidase (PPO) from quince leaves
T1 construct: isoenzyme not identified; free enzyme
Assay: absorbance at […] nm, Lineweaver-Burk
Type: biochemical, Cydonia oblonga
Conditions: free enzyme, partially purified; optimum pH and temperature (pH 7.5, 30 °C), phosphate buffer

Compound: Oc1ccccc1O [catechol]
- Km: 5.86 mM

From publication PMC3918733, “The Enzymatic Decolorization of Textile Dyes by the Immobilized Polyphenol Oxidase from Quince Leaves” (The Scientific World Journal, 2014)
